Values of other authors in patent US10794912B2 (priority 2017, dated 2020).

Settings: in vivo

## C[C@@H]1Cc2c(Cl)cc(C(=O)N[C@@H](Cc3ccccc3)C(=O)O)c(O)c2C(=O)O1 [ochratoxin A]
  time to death: 5 to 6 days
